# Entries after “also recorded” stand apart in the source; their conditions may differ.
# Assays:
# [1] = system: mouse model of hyperglycemia; assay: Oral glucose tolerance test in mice (mouse model of hyperglycemia); format: in vivo; conditions: for blood glucose levels / blood glucose load in mouse model of type II diabetes: mice administered high levels of glucose
# Excerpt: Type II diabetes is characterized by high blood glucose levels in the presence of normal amounts of insulin. Animal models of type II diabetes involve administering high levels of glucose and measuring blood glucose levels and the ability of the experimental animal to maintain glucose homeostasis over time. Several pharmacological structural classes can effectively regulate this hyperglycemic response including sulfonylureas, thiazoladinediones (PPARγ agonists; glitazones) or metformin (glucophage). These drug classes are also clinically approved for use in humans. In the current study, we established a mouse model of hyperglycemia by administering high levels of glucose to mice.
# Glucose was formulated in water at a concentration of 150 mg/ml and dosed at a volume of 10 ml/kg to produce a dose of 1.5 g/kg. Glucose was measured using the Ascensia II Elite XL glucose monitor (Bayer). Measure glucose by taking a small (2 mm) section off the tip of the tail, bleed onto glucose test strip and measure. Data for each time point analyzed by ANOVA and post-hoc Tukey's test. A p value of less then 0.05 was used to indicate statistical significance.
# In study 1, mice were dosed with Compound 102 and glucose as follows:
# In study 2, mice were dosed with Compound 102 and glucose as follows.
# Study 3 tested Compound 102 and was conducted as follows: […]
# [2] = system: Male CD1/ICR mice fed Western Diet; assay: Western diet study: weight gain, food intake, fat pad weights; format: in vivo
# Excerpt: Male CD1/ICR mice were obtained from Harlan. The study was started when mice were 8 weeks of age. Prior to initiation of the study mice fasted for 24 hrs. Mice were fed “Western Diet” that was designed to approximate the “typical” human diet of North America and Europe (Research Diets; New Brunswick, N.J.; Western Diet composition). The Western Diet contained greater then 5 times more fat then normal chow. [table] Mice were weighed daily beginning from the start of the 24 hr fasting period. Food intake was monitored continuously. Mice were bled by retroorbital eyebleed on days 7, 14, 21 and 28 after the initiation of the study. On day of REB mice were dosed 1× with full dose 1 hr prior to bleed. Fat pads were dissected at the end of the study (day 31) weighed and frozen. The following fat pads were dissected: brown, inguinal, axial, mesenteric, renal and epidydimal. Data were averaged and analyzed by ANOVA followed by a post-hoc Tukey's test with a p value of less then 0.05 indicating a statistical difference.
# leptin = assay: Leptin levels in Western diet treated animals (ELISA); format: in vivo; conditions: Western diet mice
# Experimental: Blood from mice that were on western diet (Compound 102) were analyzed for leptin levels. Mice were bled by retroorbital eyebleed on days 7, 14, 21 and 28 after the initiation of the study. On day of REB mice were dosed once with full dose 1 hr prior to bleed. Leptin levels were determined by ELISA (R&D Systems) as per directions. Data are expressed as the average ±SEM. Data were averaged and analyzed by ANOVA followed by a post-hoc Tukey's test with a p value of less then 0.05 indicating a statistical difference.
# Db/Db mice [3] = assay: In vivo Db/Db mouse glucose study
# Experimental: (§1) Db/Db and Db/lean mice were obtained from Harlan at 6 weeks of age. Mice were housed 3 per cage and fed ad libitum normal rodent chow. Mice were kept on a 12 hr Light:dark cycle.
# (§2) The study was initiated when mice reached an age of 8 weeks and their baseline blood glucose levels were greater than 200 mg/dl. Compound 102 was formulated in PBS: 2N HCl (99:1) at concentrations of 0.5, 1.5 and 5 mg/ml. Mice were dosed at volumes of 10 ml/kg to produce doses of 5, 15 and 50 mg/kg/dose. Mice were dosed twice per day at an 8 hr interval (8 am and 4 pm) during the light cycle.
# For the acute blood glucose measurements, blood glucose levels were measured after the animals received their first dose of Compound 102. Blood glucose levels were measured two hrs after this initial injection.
# Db/Db mice [4] = assay: In vivo Db/Db mouse obesity study
# Experimental: as §1, §2
# Mice were administered vehicle or drug (i.e., Compound 102) (5, 15, and 50 mg/kg) twice per day (bid) for the 28 days. Mouse weight and food intake were monitored daily. Food intake is reported as food intake (grams) per mouse per 24 hr period.
# Zucker rats = assay: In vivo Zucker rat glucose study; conditions: 30 mg/kg ip, glucose 1.5 g/kg, 30 and 270 minutes
# Experimental: Zucker rats and corresponding lean rats were supplied by Harlan. Rats were fed a normal diet, ad libitum, and kept on a 12 hr light/dark cycle. Rats were housed 3 per cage. At 12 weeks of age, Zucker rats were administered Compound 102 at a concentration of 30 mg/kg (ip). Blood glucose levels were measured 30 minutes after administration. Forty-five minutes after drug administration, animals were administered a glucose solution (1.5 g/kg) by oral gavage. Blood glucose levels were measured every 30 minutes after gavage for 4.5 hrs. There were 3 groups with 3 animals per group: 1) 3 Zucker leans (no drug; no glucose treatment); 2) Zucker vehicle treated group (glucose challenged and 3) Zucker Compound 102 treatment (30 mg/kg); glucose challenged.
# Lyn Kinase enzyme = Lyn Kinase enzyme (Homo sapiens, UniProt P07948); assay: In vitro Lyn kinase enzyme activity; format: biochemical; conditions: FIG. 12
# Sequence of Lyn Kinase enzyme (P07948 whole entry): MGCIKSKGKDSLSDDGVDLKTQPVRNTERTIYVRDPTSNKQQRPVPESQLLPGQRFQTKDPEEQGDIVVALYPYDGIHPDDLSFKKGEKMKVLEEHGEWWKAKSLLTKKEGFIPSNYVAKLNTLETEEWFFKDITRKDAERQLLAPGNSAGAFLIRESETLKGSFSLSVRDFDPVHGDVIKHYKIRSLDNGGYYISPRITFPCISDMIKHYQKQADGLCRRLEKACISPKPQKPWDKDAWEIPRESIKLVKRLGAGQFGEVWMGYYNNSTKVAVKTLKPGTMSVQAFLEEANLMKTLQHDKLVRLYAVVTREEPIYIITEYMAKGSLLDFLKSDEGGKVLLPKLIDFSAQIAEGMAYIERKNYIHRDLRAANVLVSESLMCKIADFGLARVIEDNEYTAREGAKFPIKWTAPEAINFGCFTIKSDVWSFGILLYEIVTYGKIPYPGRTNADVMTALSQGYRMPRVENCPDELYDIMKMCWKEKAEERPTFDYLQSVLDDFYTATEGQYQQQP
# Db/Db mice [5] = assay: In vivo Db/Db mouse obesity study; conditions: chronic administration to mice
# [6] = single dose of 2 or 10 mg/kg, FIG. 3
smiles,measurement,setting,value
Cc1cccc(Oc2cnc(=O)[nH]c2)c1 [Compound 102],blood glucose levels / blood glucose load in mouse model of type II diabetes,[1],effective in reducing blood glucose levels
same,time after drug administration at which significance was lost,"[1]; study 1, single administration, 30 mg/kg",90 min
same,normal blood glucose levels (pre-glucose loading),"[1]; study 1, single administration, 30 mg/kg, mice",significantly decreased
same,blood glucose levels produced by oral glucose administration,"[1]; study 1, single administration, 30 mg/kg, oral glucose 1.5 g/kg",significantly attenuated
same,effect on blood glucose levels,"[1]; study 2, increased dosing (four times at 30 minute intervals)",more dramatic effect
same,food intake,[2],not affected
same,"brown, axial, inguinal, renal and epididymal fat pad increases",[2]; day 31,significantly reduced
same,weight gain,[2]; highest dose tested (30 mg/kg/day),significantly reduced; also recorded: significant alteration in weight change
same,blood leptin levels,leptin,reduced leptin levels to those fed a normal diet
same,acute blood glucose response upon study initiation and on weekly testing,Db/Db mice [3]; 15 mg/kg and 50 mg/kg dose groups,acute dose response
same,blood glucose levels following acute administration,Db/Db mice [3]; 2 hrs after first dose,reduce blood glucose levels; also recorded: reduction in glucose levels
same,"blood glucose levels, dose dependence","Db/Db mice [3]; IP twice/day, four weeks",dose dependent effect
same,"animal weight gain, dose dependence","Db/Db mice [4]; Db/Db mice, IP twice/day, four weeks",dose dependent effect
same,food intake,"Db/Db mice [4]; Db/Db mice, bid, 28 days",without affecting food intake
same,weight gain,"Db/Db mice [4]; Db/Db mice, bid, 28 days",significantly lowered; also recorded: reduction in weight gain
same,defecation,Db/Db mice [4]; chronic administration to mice,defecated normally
same,food intake compared to vehicle-treated animals,Db/Db mice [4]; chronic administration to mice,normal food intake
same,hyperactivity (as with amphetamine class of weight-loss drugs),"Db/Db mice [4]; mouse, in vivo",did not display the hyperactivity
same,blood glucose levels after oral glucose challenge,Zucker rats,reduced blood glucose levels at both time points; also recorded: reduction is blood glucose levels
same,in vitro activity of Lyn Kinase enzyme,Lyn Kinase enzyme,increased in vitro activity
same,weight-gain response of animals fed a high fat diet,Db/Db mice [5],significantly inhibited
O=c1ncc(Oc2cccc(Cl)c2)c[nH]1 [Compound 105],blood glucose levels / blood glucose load in mouse model of type II diabetes,[1],effective in reducing blood glucose levels
same,baseline blood glucose levels,[1]; [6],significantly depressed
same,blood glucose levels at all time points after administration,[1]; [6],significantly (P<0.05) reduced
"CN(C)C(=N)N=C(N)N [metformin, reference compound]",blood glucose levels / blood glucose load in mouse model of type II diabetes,[1],can effectively reduce the blood glucose load
